In patent US8859818B2, “Electrophotographic photoreceptor” (Takasago International Corporation, priority 2010, dated 2014):

What was measured:
[1] = solubility in tetrahydrofuran; type: physicochemical; conditions: 25° C., weight dissolved completely in 1 g tetrahydrofuran
Experimental: Each of the Exemplified Compounds (1-1) and (1-2) was dissolved in 1 g of tetrahydrofuran at 25° C.
Experiments were conducted by using Comparative Compounds (3) to (5) in the same manner as in Example 8.

[2] = dissolution in binder polymer solution for film formation; type: physicochemical
Experimental: Into 85 parts by weight of tetrahydrofuran, 15 parts by weight of “Panlite TS-2020” (manufactured by Teijin Chemicals Ltd.) and 15 parts by weight of Compound (1-1) were dissolved by mixing. The solution was applied by using a doctor blade onto a sheet in which aluminum was vapor deposited on a polyethylene […] (PET) film, followed by drying at 80° C. for 3 hours. Thus, a charge transport layer was formed (thickness: 18 μm). Further, a translucent gold electrode was vapor deposited on this charge transport layer, and the charge carrier mobility was measured. For the measurement of the carrier mobility, a nitrogen gas laser having a pulse half width of […] and a wavelength of 337 nm was used as a light source, and the time-of-flight method (Toshiaki Tanaka, Yasuhiro Yamaguchi and Masaaki Yokoyama, Denshi Shashin (Electrophotography), 29, 366 (1990)) was employed. Table 1 and FIG. 1 show the results measured at 25° C. and 25 V/μm.
Experiments were conducted by using Comparative Compounds (1) to (6) in the same manner as in Example 1. […] Note that it was impossible to measure the mobility of Comparative Compounds (3) to (5) because of their insolubility.
Into 8 parts by weight of tetrahydrofuran, 1 part by weight of a polycarbonate “Z-200” (manufactured by Mitsubishi Engineering-Plastics Corporation) and 1 part by weight of Compound (1-1) or (1-2) were dissolved by mixing. The liquid was applied onto the charge generation layer, followed by drying at 80° C. for 2 hours, to thereby form a charge transport layer (thickness: approximately 20 μm). Thus, each electrophotographic photoreceptor was prepared.
Experiments were conducted by using Comparative Compounds (2) to (6) in the same manner as in Example 4. […] Note that it was impossible to measure the electrophotographic characteristics of Comparative Compounds (3) to (5) because of their insolubility.
Into 85 parts by weight of tetrahydrofuran, 15 parts by weight of “Panlite TS-2020” and 15 parts by weight of Compound (1-1) or (1-2) were dissolved by mixing. This liquid was applied onto a PET plate by using a doctor blade, followed by drying at 80° C. for 3 hours. Thus, a thin film was prepared (thickness: approximately 20 μm).
Experiments were conducted by using Comparative Compounds (3) to (5) in the same manner as in Example 6. […] Note that it was impossible to perform measurement of Comparative Compounds (3) to (5) because of their insolubility.

[3] = 1 part polycarbonate Z-200, 1 part compound, 8 parts tetrahydrofuran
[4] = 15 parts Panlite TS-2020, 15 parts compound, 85 parts tetrahydrofuran

Row | SMILES | melting point [°C] | Solubility [1] [g/g tetrahydrofuran] | dissolution in binder polymer solution [2, 3] | dissolution in binder polymer solution [2, 4]
1 | COc1cccc(C=Cc2ccc(N(c3ccc(C=Cc4cccc(OC)c4)cc3)c3ccc(C=Cc4cccc(OC)c4)cc3)cc2)c1 [Compound (1-2)] | 145 to 146 | 0.45 |  | 
2 | Cc1cccc(C=Cc2ccc(N(c3ccc(C=Cc4cccc(C)c4)cc3)c3ccc(C=Cc4cccc(C)c4)cc3)cc2)c1 [Compound (1-1)] | 98 to 99 | 0.40 |  | 
3 | COc1ccc(/C=C/c2ccc(N(c3ccc(/C=C/c4ccc(OC)cc4)cc3)c3ccc(/C=C/c4ccc(OC)cc4)cc3)cc2)cc1 [Comparative Compound (5)] |  | 0.10 | not successfully dissolved | not successfully dissolved
4 | Cc1ccc(/C=C/c2ccc(N(c3ccc(/C=C/c4ccc(C)cc4)cc3)c3ccc(/C=C/c4ccc(C)cc4)cc3)cc2)cc1 [Comparative Compound (3)] |  | 0.08 | not successfully dissolved | not successfully dissolved
5 | Cc1ccccc1/C=C/c1ccc(N(c2ccc(/C=C/c3ccccc3C)cc2)c2ccc(/C=C/c3ccccc3C)cc2)cc1 [Comparative Compound (4)] |  | 0.02 | not successfully dissolved | not successfully dissolved
